Test results as given in ChEMBL document CHEMBL1201862, “PubChem BioAssay data set” (2004).
Activity calls are given as the source filed them.

Experiments:
[1] = biological target: Paired box protein Pax-8 (Homo sapiens, UniProt Q06710); experiment: PAX8 transcriptional activity inhibition in RMG-I – RMG-I cells, luciferase, cherry-pick, dose response (AID 687027); assay type: functional, cell-based;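 note: luciferase reporter driven by Pax8 target thyroperoxidase promoter measured by SteadyGlo luminescence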
Paired box protein Pax-8, sequence (Q06710 whole entry): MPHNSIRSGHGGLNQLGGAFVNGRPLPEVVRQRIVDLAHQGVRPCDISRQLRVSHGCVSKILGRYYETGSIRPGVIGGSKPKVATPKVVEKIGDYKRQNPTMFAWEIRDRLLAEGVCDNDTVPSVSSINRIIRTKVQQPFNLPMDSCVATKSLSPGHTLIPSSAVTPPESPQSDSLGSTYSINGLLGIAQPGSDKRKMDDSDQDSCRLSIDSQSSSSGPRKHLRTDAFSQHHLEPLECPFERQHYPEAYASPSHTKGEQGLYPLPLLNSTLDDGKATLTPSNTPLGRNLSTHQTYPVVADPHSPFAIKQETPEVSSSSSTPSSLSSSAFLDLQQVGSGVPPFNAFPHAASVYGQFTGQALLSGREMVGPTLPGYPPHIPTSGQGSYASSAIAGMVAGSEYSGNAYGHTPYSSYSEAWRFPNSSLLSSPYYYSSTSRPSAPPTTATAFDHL

[2] = biological target: T1, Galanin receptor type 3 (Homo sapiens, UniProt O60755); experiment: Fluorescence-based cell-based primary high throughput dose response assay to identify antagonists of the Galanin Receptor 3 (GalR3).; assay type: functional
T1 sequence (O60755 whole entry): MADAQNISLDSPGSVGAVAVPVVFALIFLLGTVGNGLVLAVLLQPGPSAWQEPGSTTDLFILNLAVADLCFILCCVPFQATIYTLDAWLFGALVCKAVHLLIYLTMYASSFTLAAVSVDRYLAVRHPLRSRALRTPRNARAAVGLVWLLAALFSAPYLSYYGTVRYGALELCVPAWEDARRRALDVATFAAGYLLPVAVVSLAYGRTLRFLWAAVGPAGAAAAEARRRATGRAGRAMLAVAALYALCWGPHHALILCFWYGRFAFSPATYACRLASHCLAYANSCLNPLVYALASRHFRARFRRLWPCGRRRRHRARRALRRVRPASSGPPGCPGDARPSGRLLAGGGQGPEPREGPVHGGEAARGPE

[3] = tested on: Vero; experiment: cells; assay type: functional, cell-based; settings: Chlorocebus sabaeus
[4] = tested on: Vero; experiment: cells; assay type: functional; settings: Chlorocebus sabaeus
[5] = cells; assay type: functional, cell-based; settings: HEK-CNG
[6] = biological target: Delta-type opioid receptor (Homo sapiens, UniProt P41143); experiment: Counterscreen for agonists of heterodimerization of the mu 1 (OPRM1) and delta 1 (OPRD1) opioid receptors: Luminescence-based cell-based high throughput dose response assay to identify agonists of OPRD1 homodimerization. [Related pubchem assays (depositor defined):AID504326, AID504355, AID504692, AID504904, AID504905]; assay type: functional
Delta-type opioid receptor, sequence (P41143 whole entry): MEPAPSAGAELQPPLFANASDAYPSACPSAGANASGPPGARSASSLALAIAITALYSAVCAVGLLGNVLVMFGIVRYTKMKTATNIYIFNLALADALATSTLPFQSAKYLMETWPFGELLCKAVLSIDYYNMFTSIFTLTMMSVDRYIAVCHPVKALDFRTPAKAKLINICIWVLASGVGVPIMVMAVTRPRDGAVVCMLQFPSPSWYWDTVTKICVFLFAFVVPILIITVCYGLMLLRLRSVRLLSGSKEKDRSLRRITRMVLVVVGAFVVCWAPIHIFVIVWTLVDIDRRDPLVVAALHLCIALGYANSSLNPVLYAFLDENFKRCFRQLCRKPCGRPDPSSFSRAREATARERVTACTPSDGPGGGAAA

[7] = biological target: T2, Short transient receptor potential channel 4 (Mus musculus, UniProt Q9QUQ5); experiment: calcium entry via TRPC4 opening agents – cell-based, HEK293 TRPC4/mu-opioid, Fluo-4 calcium, dose response (AID 434937); assay type: functional
T2 sequence (Q9QUQ5 whole entry): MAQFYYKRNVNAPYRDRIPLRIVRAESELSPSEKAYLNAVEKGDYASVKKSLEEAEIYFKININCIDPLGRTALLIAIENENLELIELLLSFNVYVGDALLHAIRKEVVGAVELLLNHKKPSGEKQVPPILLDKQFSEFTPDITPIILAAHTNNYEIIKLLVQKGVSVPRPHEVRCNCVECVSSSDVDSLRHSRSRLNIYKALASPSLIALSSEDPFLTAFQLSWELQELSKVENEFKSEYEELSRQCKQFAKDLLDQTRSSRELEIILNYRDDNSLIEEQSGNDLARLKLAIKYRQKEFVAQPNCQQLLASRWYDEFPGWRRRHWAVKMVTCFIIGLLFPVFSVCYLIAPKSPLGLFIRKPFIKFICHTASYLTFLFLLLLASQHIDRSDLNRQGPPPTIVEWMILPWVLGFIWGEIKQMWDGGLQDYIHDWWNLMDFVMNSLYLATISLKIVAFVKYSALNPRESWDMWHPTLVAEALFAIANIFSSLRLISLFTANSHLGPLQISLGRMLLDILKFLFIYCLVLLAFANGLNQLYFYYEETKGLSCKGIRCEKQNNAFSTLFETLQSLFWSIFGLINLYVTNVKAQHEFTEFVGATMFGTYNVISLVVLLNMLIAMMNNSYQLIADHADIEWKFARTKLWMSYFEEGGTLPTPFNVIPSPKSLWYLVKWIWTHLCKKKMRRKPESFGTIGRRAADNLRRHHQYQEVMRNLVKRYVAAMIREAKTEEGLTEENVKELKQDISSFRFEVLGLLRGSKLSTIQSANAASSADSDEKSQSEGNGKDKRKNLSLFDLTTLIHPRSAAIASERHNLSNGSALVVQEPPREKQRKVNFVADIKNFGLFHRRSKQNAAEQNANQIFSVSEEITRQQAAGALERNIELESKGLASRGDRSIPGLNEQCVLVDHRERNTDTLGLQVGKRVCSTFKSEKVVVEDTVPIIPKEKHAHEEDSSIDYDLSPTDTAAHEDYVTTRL

[8] = biological target: 5-hydroxytryptamine receptor 5A (Homo sapiens, UniProt P47898); experiment: Counterscreen for agonists of OPRM1-OPRD1 heterodimerization: luminescence-based cell-based high throughput dose response assay to identify agonists of 5-hydroxytryptamine (serotonin) 5A receptor (HTR5A). [Related pubchem assays (depositor defined):AID504326, AID504355, AID504692, AID504904, AID504905]; assay type: functional
5-hydroxytryptamine receptor 5A, sequence (P47898 whole entry): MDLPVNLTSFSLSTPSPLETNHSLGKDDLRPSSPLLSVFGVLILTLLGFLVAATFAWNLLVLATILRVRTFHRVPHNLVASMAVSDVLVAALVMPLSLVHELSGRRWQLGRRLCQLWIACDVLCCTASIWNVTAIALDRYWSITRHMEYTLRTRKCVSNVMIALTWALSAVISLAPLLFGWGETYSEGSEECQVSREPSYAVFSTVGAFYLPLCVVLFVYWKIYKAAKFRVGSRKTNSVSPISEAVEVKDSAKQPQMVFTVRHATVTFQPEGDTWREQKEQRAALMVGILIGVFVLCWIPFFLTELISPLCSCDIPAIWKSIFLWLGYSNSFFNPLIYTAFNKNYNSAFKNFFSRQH

[9] = biological target: Mu-type opioid receptor (Homo sapiens, UniProt P35372); experiment: Counterscreen for agonists of heterodimerization of the mu 1 (OPRM1) and delta 1 (OPRD1) opioid receptors: Luminescence-based cell-based high throughput dose response assay to identify agonists of OPRM1 homodimerization.; assay type: functional;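 note: U2OS cells expressing OPRM1 and beta-arrestin as split beta-galactosidase partners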
Mu-type opioid receptor, sequence (P35372 whole entry): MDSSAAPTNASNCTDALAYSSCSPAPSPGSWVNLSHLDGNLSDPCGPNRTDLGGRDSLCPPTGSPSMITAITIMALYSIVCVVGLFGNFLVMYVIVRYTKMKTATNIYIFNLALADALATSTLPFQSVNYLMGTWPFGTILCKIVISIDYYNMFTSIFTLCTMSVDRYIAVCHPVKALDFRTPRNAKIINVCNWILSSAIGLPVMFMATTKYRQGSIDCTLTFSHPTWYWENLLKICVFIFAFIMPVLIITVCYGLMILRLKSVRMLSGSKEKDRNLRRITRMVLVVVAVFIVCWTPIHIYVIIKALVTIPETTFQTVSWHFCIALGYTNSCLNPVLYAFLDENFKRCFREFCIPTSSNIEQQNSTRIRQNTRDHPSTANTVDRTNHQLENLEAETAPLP

[10] = biological target: T2, Short transient receptor potential channel 4; experiment: block of DAMGO-driven TRPC4 calcium entry – cell-based, HEK293 TRPC4/mu-opioid, Fluo-4 calcium, dose response (AID 434942); assay type: functional;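 note: potency of inhibitors blocking the TRPC4 calcium response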
[11] = biological target: Large T antigen (Simian virus 40, UniProt P03070); assay type: functional, Betapolyomavirus macacae;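 note: Confirmatory-stage PubChem screen for compounds that inhibit SV40 T antigen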
Large T antigen, sequence (P03070 whole entry): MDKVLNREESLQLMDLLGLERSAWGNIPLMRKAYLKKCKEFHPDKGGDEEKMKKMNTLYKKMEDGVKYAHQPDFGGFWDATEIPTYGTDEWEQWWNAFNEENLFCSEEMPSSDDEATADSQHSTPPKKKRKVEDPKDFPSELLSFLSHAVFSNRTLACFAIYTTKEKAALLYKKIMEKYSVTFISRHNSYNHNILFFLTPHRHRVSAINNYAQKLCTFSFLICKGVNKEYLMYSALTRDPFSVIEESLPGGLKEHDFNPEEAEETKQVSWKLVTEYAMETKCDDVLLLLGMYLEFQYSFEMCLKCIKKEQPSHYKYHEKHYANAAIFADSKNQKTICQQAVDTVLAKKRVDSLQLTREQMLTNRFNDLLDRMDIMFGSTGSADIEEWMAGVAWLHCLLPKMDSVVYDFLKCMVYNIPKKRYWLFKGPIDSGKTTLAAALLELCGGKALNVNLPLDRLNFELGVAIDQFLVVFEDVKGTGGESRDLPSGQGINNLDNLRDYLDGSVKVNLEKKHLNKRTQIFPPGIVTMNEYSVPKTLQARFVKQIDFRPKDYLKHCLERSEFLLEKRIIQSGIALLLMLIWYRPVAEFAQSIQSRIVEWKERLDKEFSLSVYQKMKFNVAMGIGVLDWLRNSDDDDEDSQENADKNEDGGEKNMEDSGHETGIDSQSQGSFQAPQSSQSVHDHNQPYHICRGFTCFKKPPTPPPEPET

[12] = reduced cellular PGC1a acetyl-lysine signal – cell-based, cherry-picked samples, dose response (AID 720514); assay type: functional;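 note: potency may reflect raised or lowered acetylation signal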
[13] = NIH3T3 cell viability loss – ATP luminescence, mouse fibroblasts, counter-screen, dose response (AID 2010); assay type: functional, cell-based;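 note: cells exposed to compound for about 90 hours before reading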
[14] = Trypanosoma cruzi growth suppression in host cells – NIH3T3 host cells, beta-gal luminescence, confirmation (AID 2044); assay type: functional, cell-based;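 note: intracellular parasites grown in NIH/3T3 mouse fibroblasts as host cells; luminescent beta-galactosidase reporter signal from transgenic T. cruzi replicating inside host cells; inhibitors lower the luminescence signal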
[15] = tested on: INS1; experiment: INS-1E survival protection against cytokine death – cell-based, luminescence, retest, dose response (AID 449756); assay type: functional; settings: Rattus norvegicus;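 note: cell death triggered by IL-1 beta plus TNF-alpha plus IFN-gamma mixture; protective hits raise ATP signal compared with cytokine alone wells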
[16] = tested on: Vero; experiment: viability of Vero cells under compound – cytotoxicity control for flavivirus capping enzyme inhibitors (AID 588742); assay type: functional; settings: Chlorocebus sabaeus
[17] = biological target: T3, Hepatocyte nuclear factor 4-alpha (Homo sapiens, UniProt P41235); assay type: functional, cell-based;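 note: biochemical luminescence-based dose-response counterscreen measuring inhibition of HNF4 dimerization, run alongside a screen for blockers of ABHD5–perilipin-5 interaction; split luciferase complementation of HNF4 fusion proteins in cell lysate measuring dimerization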
T3 sequence (P41235 whole entry): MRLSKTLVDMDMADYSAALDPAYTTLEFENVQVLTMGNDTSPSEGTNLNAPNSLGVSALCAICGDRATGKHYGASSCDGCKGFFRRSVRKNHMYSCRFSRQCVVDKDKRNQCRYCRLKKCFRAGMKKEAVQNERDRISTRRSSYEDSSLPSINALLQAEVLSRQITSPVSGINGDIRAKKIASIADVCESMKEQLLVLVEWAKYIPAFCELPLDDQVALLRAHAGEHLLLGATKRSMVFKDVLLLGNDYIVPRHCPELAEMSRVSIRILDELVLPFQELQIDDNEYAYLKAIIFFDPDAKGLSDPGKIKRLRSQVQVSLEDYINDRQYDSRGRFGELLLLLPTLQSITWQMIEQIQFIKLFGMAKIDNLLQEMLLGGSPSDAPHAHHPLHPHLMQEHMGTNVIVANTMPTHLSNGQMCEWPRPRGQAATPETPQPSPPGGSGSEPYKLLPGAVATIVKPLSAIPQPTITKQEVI

[18] = biological target: Genome polyprotein (dengue virus type 2, UniProt P29990); experiment: flavivirus cap methylation enzyme inhibition – biochemical, confirmation dose response, primary screen (AID 588689); assay type: functional
Genome polyprotein, sequence (P29990 2492-3391 limits assumed): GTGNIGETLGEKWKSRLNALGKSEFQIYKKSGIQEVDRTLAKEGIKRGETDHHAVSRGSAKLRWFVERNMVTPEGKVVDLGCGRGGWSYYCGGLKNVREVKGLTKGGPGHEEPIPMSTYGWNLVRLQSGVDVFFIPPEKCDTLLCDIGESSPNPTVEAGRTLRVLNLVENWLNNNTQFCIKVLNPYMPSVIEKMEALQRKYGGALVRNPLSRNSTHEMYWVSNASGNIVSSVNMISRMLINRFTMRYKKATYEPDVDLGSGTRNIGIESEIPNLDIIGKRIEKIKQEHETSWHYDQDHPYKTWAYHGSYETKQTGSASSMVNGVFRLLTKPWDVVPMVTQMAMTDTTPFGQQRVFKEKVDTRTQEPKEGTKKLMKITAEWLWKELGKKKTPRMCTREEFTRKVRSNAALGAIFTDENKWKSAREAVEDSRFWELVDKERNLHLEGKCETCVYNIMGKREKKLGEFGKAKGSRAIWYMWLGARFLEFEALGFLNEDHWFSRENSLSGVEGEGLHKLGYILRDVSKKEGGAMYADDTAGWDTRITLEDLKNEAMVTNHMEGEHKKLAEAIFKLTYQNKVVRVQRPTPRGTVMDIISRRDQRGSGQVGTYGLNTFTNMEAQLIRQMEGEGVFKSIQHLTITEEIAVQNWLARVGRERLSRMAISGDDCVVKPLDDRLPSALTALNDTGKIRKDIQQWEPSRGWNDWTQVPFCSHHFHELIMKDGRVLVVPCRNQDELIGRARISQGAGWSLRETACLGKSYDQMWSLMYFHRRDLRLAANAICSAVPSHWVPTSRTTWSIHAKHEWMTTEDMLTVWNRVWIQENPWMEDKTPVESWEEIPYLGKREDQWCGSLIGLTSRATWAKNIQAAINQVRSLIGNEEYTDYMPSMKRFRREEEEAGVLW

[19] = tested on: CHO-K1; experiment: Counterscreen for antagonists of the orexin 1 receptor (OX1R; HCRTR1): Homogeneous time resolved fluorescence (HTRF)-based cell-based dose response assay to identify antagonists of the parental CHO-K1 cell line. [Related pubchem assays (depositor defined):AID434989, AID435008, AID463079, AID485270, AID492963, AID492964, AID492965, AID493232, AID504699, AID504701]; assay type: functional; settings: Cricetulus griseus;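 note: potency for inhibition of ATP-stimulated IP1 production as antagonists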
[20] = biological target: T4, Orexin receptor type 2 (Homo sapiens, UniProt O43614); experiment: Counterscreen assay for antagonists of the orexin 1 receptor (OX1R; HCRTR1): Homogeneous Time Resolved Fluorescence (HTRF)-based cell-based dose response assay for antagonists of the orexin 2 receptor (OX2R; HCRTR2), run by assay provider.; assay type: functional
T4 sequence (O43614 whole entry): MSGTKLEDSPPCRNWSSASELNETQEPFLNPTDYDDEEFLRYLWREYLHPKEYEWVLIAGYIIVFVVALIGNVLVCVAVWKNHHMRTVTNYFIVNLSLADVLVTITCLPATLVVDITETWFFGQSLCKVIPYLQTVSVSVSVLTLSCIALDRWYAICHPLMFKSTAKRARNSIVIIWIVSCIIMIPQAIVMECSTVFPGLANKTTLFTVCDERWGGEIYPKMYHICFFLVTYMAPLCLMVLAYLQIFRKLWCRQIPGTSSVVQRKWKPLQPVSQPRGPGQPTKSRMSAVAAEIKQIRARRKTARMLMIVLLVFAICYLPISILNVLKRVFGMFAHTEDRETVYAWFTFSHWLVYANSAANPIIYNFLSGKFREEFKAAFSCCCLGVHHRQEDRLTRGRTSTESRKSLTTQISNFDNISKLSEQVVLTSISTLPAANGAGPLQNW

[21] = Counterscreen for antagonists of the orexin 1 receptor (OX1R; HCRTR1): Fluorescence-based cell-based high throughput dose response assay to identify antagonists of the parental CHO cell line. [Related pubchem assays (depositor defined):AID434989, AID435008, AID463079, AID485270, AID492963, AID492964, AID492965, AID493232, AID504699, AID504701]; assay type: functional
[22] = biological target: T4, Orexin receptor type 2; experiment: Counterscreen assay for antagonists of the orexin 1 receptor (OX1R; HCRTR1): Fluorescence-based cell-based dose response assay for antagonists of the orexin 2 receptor (OX2R; HCRTR2), run by assay provider.; assay type: functional
[23] = biological target: T5, Orexin/Hypocretin receptor type 1 (Homo sapiens, UniProt O43613); experiment: Homogeneous Time Resolved Fluorescence (HTRF)-based cell-based high throughput dose response assay for antagonists of the orexin 1 receptor (OX1R; HCRTR1). [Related pubchem assays (depositor defined):AID434989, AID435008, AID463079, AID485270, AID492963, AID492964, AID492965, AID493232, AID504717, AID504718]; assay type: functional
T5 sequence (O43613 whole entry): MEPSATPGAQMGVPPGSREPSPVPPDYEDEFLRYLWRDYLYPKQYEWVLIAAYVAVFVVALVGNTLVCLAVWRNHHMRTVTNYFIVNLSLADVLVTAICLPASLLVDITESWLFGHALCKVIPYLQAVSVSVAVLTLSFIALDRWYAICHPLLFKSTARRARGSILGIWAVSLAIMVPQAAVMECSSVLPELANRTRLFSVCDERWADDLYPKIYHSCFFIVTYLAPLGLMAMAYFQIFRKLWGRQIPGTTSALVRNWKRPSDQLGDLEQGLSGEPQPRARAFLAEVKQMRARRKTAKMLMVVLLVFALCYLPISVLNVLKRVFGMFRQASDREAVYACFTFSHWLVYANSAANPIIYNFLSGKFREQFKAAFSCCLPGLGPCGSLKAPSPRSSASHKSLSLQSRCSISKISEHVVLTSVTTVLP

[24] = biological target: T5, Orexin/Hypocretin receptor type 1; experiment: Fluorescence-based cell-based high throughput dose response assay for antagonists of the orexin 1 receptor (OX1R; HCRTR1). [Related pubchem assays (depositor defined):AID434989, AID435008, AID463079, AID485270, AID492963, AID492964, AID492965, AID493232, AID504717, AID504718]; assay type: functional
[25] = viability loss in THP-1 monocytes – THP-1 cells, cytotoxicity control for Vif-APOBEC3G degradation inhibitor project, dose response (AID 1117359); assay type: functional; settings: THP-1

## C[C@]12CC[C@H]3[C@@H](CC[C@@]4(O)C[C@@H](O)CC[C@]34C=O)[C@]1(O)CC[C@@H]2C1=CC(=O)OC1
[1]
  AC50: 3.39 µM (active)
[2]
  IC50: > 29.9 µM (inactive)
[3]
  IC50: < 0.05 µM (active)
[4]
  CC50: 1.65 µM (active)
[5]
  EC50: > 29.9 µM (inactive)

## COc1ccc(C(CNC(=O)C(C)c2ccc3cc(OC)ccc3c2)N(C)C)cc1 (stereo not given)
[6]
  EC50: > 92.4 µM (inactive)
[7]
  EC50: 0.473 µM (active)
[8]
  EC50: > 92.4 µM (inactive)
[9]
  EC50: > 92.4 µM (inactive)

## CCOC(=O)c1c(NC(=O)/C=C/C(=O)O)sc(C)c1-c1ccc(C(C)(C)C)cc1
[10]
  EC50: 5.31 µM (active)
[11]
  IC50: 20.8 µM (active)
[12]
  AC50: 32.8 µM (active)
[13]
  EC50: > 60 µM (not active)
[14]
  EC50: 3.42 µM (active)
[15]
  AC50: 4.33 µM (active)
[16]
  CC50: 10.6 µM (active)
[17]
  IC50: 17.4 µM (inactive)
[18]
  IC50: 25.6 µM (active)

## CCOC(=O)c1ccc2[nH]c(C)c(C)c2c1
[19]
  IC50: > 66.3 µM (inactive)
[20]
  IC50: 13.5 µM (inactive)
[21]
  IC50: > 49.8 µM (inactive)
[22]
  IC50: 18.8 µM (inactive)
[23]
  IC50: 5.45 µM (active)
[24]
  IC50: 20.2 µM (inactive)

## CCCC(=O)NC(C)C(c1cccs1)N1CCN(c2ccccc2)CC1 (stereo not given)
[6]
  EC50: > 92.5 µM (inactive)
[7]
  EC50: 0.267 µM (active)
[8]
  EC50: > 92.5 µM (inactive)
[9]
  EC50: > 92.5 µM (inactive)

## Oc1ccc(NCc2cccc(OCc3ccccc3)c2)cc1
[16]
  CC50: > 40 µM (active)
[25]
  CC50: 36.2 µM (active)
